Literature values in patent US6559165B1, “Methods for treating bulimia using optically pure (−) norcisapride” (priority 1998, dated 2003).

Experiments:
[1] = co-administration with ketoconazole

increase of steady-state plasma levels [1]: 8 fold
portion of dose metabolized (humans, oxidative N-dealkylation or aromatic hydroxylation): More than 90%
bioavailability (oral administration to humans, rapid first-pass metabolism in the liver): 40-50%
SMILES: COc1cc(N)c(Cl)cc1C(=O)N[C@H]1CCN(CCCOc2ccc(F)cc2)C[C@H]1OC (racemic) [(±) Cisapride, cis-4-amino-5-chloro-N-[1-[3-(4-fluorophenoxy)propyl]-3-methoxy-4-piperidinyl]-2-methoxybenzamide]
